We go through one molecule from ChEMBL document CHEMBL5338713, “Discovery of pomalidomide-based PROTACs for selective degradation of histone deacetylase 8” (Eur J Med Chem, 2022).

In general, Emax refers to the greatest response seen or fitted, relative to the assay's reference. A word on the DC50: it is the concentration giving 50% degradation.

Type in all cases: cell-based
Assay [1] addresses T1, Protein cereblon/Histone deacetylase 8 (Homo sapiens) (UniProt Q9BY41+Q96SW2). Nature of the assay: PROTAC activity at HDAC8/CRBN in human HCT-116 cells assessed as degradation of HDAC8 at 5 uM measured after 10 hrs in presence of bafilomycin Al by Western blot analysis. (A western blot detects proteins with antibodies after separation by electrophoresis.)
In assay [2] the target is T2, Protein deacetylase HDAC6 (Homo sapiens) (UniProt Q9UBN7).
T2 sequence (whole entry): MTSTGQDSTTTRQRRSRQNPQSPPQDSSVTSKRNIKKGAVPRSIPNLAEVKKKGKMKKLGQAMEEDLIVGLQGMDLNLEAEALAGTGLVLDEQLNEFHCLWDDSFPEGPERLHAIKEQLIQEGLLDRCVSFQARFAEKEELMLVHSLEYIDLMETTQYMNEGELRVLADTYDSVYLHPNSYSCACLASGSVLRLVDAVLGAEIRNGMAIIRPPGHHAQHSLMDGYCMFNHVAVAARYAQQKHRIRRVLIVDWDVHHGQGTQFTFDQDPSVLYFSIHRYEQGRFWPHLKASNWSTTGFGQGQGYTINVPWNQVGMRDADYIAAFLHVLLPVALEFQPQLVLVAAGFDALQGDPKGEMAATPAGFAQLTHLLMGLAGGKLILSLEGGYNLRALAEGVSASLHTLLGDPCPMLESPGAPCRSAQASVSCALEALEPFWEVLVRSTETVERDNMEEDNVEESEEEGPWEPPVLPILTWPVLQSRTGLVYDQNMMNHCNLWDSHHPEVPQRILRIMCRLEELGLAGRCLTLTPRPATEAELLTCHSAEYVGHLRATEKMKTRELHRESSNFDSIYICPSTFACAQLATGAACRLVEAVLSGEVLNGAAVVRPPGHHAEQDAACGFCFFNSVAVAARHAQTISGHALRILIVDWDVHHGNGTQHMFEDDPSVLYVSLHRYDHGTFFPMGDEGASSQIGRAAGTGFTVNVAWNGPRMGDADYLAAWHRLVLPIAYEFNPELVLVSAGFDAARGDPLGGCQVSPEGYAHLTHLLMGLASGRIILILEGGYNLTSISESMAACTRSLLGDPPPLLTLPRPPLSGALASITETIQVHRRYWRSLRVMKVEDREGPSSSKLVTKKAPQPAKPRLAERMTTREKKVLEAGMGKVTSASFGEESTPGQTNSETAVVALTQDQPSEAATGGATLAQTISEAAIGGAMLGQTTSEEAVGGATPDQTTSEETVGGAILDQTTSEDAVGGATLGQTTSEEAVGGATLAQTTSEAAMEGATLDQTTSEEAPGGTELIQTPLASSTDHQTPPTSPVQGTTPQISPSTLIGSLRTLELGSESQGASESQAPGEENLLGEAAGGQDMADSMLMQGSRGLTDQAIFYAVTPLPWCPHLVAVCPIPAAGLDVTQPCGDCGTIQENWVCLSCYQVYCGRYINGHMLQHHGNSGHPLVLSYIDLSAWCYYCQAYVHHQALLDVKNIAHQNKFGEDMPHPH
As to the kind of experiment: Induction of HDAC6 degradation in human HCT-116 cells assessed as increase in alpha-tubulin acetylation level measured after 10 hrs by Western blot analysis. As to conditions: dose 0.1-160 µM.

The target in assay [3] is T3, Histone deacetylase 8 (Homo sapiens) (UniProt Q9BY41).
T3 sequence (whole entry): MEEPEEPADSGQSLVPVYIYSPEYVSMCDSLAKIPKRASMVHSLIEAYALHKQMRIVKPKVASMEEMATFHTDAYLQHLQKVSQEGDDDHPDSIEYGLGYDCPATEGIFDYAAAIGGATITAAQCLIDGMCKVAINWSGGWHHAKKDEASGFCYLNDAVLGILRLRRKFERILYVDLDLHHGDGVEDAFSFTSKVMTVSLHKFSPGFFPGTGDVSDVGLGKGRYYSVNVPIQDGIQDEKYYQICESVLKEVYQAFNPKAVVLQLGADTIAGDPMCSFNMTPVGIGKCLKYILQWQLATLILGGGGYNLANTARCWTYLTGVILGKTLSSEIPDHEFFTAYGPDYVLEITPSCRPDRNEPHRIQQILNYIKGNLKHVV
Nature of the assay: Induction of HDAC8 degradation in human HCT-116 cells assessed as increase in SMC3 acetylation level measured after 10 hrs by Western blot analysis. The conditions noted are these: dose 0.1-160 µM.

The target of assay [4] is T1, Protein cereblon/Histone deacetylase 8 (Homo sapiens). As to the kind of experiment: PROTAC activity at HDAC8/CRBN in human HCT-116 cells assessed as degradation of HDAC8 at 5 uM measured after 10 hrs in presence of BRD73954 by Western blot analysis.
In assay [5] the target is T3, Histone deacetylase 8 (Homo sapiens). As to the kind of experiment: Induction of HDAC8 degradation in human HCT-116 cells at 5 uM by Western blot analysis relative to control.
For assay [6] the target is unchanged. Nature of the assay: Induction of HDAC8 degradation in human HCT-116 cells assessed as maximum degradation at 0.1 to 160 uM measured after 10 hrs by Western blot analysis relative to control. As to conditions: dose 0.1-160 µM.
The target in assay [7] is T1, Protein cereblon/Histone deacetylase 8 (Homo sapiens). Nature of the assay: PROTAC activity at HDAC8/CRBN in human HCT-116 cells assessed as degradation of HDAC8 at 5 uM measured after 10 hrs in presence of MG132 by Western blot analysis.
The target of assay [8] is Histone deacetylase 3 (Homo sapiens) (UniProt O15379). As to the kind of experiment: Induction of HDAC3 degradation in human HCT-116 cells at 0.1 to 160 uM measured after 10 hrs by Western blot analysis. As to conditions: dose 0.1-160 µM.
Histone deacetylase 3 (Homo sapiens), sequence (O15379 whole entry): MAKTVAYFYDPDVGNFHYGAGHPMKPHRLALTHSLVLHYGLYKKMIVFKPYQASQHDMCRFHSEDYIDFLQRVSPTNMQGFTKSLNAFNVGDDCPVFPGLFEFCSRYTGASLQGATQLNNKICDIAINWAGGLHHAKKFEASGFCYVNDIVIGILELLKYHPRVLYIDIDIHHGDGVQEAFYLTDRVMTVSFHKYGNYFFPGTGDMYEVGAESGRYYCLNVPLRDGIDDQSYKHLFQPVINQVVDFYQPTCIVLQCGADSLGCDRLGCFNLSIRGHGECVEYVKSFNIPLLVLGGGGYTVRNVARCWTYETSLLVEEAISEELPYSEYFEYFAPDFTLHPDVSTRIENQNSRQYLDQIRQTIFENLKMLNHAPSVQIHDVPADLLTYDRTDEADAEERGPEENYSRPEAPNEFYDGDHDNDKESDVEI
For assay [9], the target named is T3, Histone deacetylase 8 (Homo sapiens). Nature of the assay: Induction of HDAC8 degradation in human HCT-116 cells assessed as maximum degradation at 5 uM measured at 10 hrs by Western blot analysis.
Assay [10] addresses T4, Protein deacetylase HDAC6 (Homo sapiens, UniProt Q9UBN7).
T4 sequence (Q9UBN7 whole entry): T2 sequence (whole entry)
Nature of the assay: Induction of HDAC6 degradation in human HCT-116 cells measured after 10 hrs by Western blot analysis.

Assay [11] concerns the target T3, Histone deacetylase 8 (Homo sapiens). As to the kind of experiment: Induction of HDAC8 degradation in human HCT-116 cells assessed as hook effect measured at > 40 uM for 10 hrs by Western blot analysis.
The target is the same in assay [12]. Nature of the assay: Induction of HDAC8 degradation in human HCT-116 cells at 5 uM measured at 2 hrs by Western blot analysis.
Assay [13] concerns the target T1, Protein cereblon/Histone deacetylase 8 (Homo sapiens). Nature of the assay: PROTAC activity at HDAC8/CRBN in human HCT-116 cells assessed as degradation of HDAC8 at 5 uM measured after 10 hrs in presence of E3 ligase inhibitor by Western blot analysis.
For assay [14], the target named is Histone deacetylase 1 (Homo sapiens) (UniProt Q13547). As to the kind of experiment: Induction of HDAC1 degradation in human HCT-116 cells at 0.1 to 160 uM measured after 10 hrs by Western blot analysis. The conditions noted are these: dose 0.1-160 µM.
Histone deacetylase 1 (Homo sapiens), sequence (Q13547 whole entry): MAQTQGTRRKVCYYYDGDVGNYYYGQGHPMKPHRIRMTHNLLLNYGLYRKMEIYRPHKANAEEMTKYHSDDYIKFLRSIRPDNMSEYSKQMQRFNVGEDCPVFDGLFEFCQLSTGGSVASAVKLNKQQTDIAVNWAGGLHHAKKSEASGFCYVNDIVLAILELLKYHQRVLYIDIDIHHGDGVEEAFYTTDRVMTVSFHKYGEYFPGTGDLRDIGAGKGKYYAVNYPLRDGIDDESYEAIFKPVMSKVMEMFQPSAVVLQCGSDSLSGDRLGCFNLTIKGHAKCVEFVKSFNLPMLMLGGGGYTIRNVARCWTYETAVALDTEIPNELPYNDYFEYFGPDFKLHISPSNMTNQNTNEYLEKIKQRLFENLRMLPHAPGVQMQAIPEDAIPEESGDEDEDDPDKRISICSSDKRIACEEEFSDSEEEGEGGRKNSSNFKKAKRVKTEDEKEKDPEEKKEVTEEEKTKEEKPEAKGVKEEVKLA
For assay [15], the target named is T1, Protein cereblon/Histone deacetylase 8 (Homo sapiens). As to the kind of experiment: PROTAC activity at HDAC8/CRBN in human HCT-116 cells assessed as degradation of HDAC8 at 5 uM measured after 10 hrs in presence of pomalidomide by Western blot analysis.
Assay [16] addresses T3, Histone deacetylase 8 (Homo sapiens). As to the kind of experiment: Induction of HDAC8 degradation in human HCT-116 cells at 5 uM measured at 24 hrs by Western blot analysis.

The source made the active and inactive calls. No cut-off for these calls is given here.

T1 sequence (Q96SW2 whole entry, looked up, one chain of several): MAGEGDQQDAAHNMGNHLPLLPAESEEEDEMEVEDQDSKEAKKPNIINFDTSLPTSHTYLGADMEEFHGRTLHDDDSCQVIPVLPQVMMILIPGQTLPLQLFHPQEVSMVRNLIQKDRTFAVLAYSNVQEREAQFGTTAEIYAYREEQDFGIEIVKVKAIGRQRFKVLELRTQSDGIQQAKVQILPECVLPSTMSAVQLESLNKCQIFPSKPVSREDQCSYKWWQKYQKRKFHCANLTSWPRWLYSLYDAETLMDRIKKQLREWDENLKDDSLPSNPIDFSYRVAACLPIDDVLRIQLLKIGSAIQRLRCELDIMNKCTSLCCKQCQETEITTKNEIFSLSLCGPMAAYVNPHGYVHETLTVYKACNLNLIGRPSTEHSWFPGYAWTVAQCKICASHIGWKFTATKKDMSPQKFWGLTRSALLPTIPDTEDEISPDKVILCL

For `O=C(CCCCOc1ccc(CCNC(=O)c2cccc(C(=O)NO)c2)cc1)NCCCCCCNc1cccc2c1C(=O)N(C1CCC(=O)NC1=O)C2=O` (stereo unspecified), the outcome in assay [1], in assay [9], in assay [11], in assay [12] and in assay [16] was Active. Further, the Activity entry is “Dose-Dependent Effect” in assay [2], “Dose-Dependent Effect” in assay [3] and 85% in assay [5]. Further, the result in assay [4], in assay [7], in assay [8], in assay [13], in assay [14] and in assay [15] was inactive. In addition, the Emax in assay [6] worked out at 93%. This molecule also registered a DC50 in [10] of 4.95 µM.
